Activity calls are given as the source filed them. The rule behind the calls is not given here.
Key:
[1] = system: Receptor-type tyrosine-protein kinase FLT3 (Homo sapiens), P36888 [UNDEFINED MUTATION]; conditions: MV4-11, dose 5-25 nM, time 1.0 hrs
[2] = system: Receptor-type tyrosine-protein kinase FLT3 (Homo sapiens), P36888 [UNDEFINED MUTATION]; conditions: MV4-11, dose 5-25 nM, time 1.0 hrs; remark: listed apart in the source
Kasumi 1 = assay: cells; conditions: Homo sapiens
Description: Antiproliferative activity against human Kasumi 1 cells harboring N822K KIT mutant

K562 = assay: cells; conditions: Homo sapiens
Description: Antiproliferative activity against human K562 cells

[3] = biological target: Cyclin-dependent kinase 2 (Homo sapiens, UniProt P24941)
Description: Inhibition of CDK2 (unknown origin)

MV4-11 [4] = type: functional, cell-based; conditions: Homo sapiens, dose 1-125 nM, time 24.0 hrs
MV4-11 [5] = assay: cells; conditions: Homo sapiens
Description: Antiproliferative activity against human MV4-11 cells expressing FLT3-ITD mutant

EOL1 = assay: cells; conditions: Homo sapiens
Description: Antiproliferative activity against human EOL1 cells expressing IP1L1-PDGFRA fusion protein

[6] = system: Receptor-type tyrosine-protein kinase FLT3 (Homo sapiens), P36888 [UNDEFINED MUTATION]; conditions: MV4-11, dose 5-25 nM, time 1.0 hrs; remark: listed apart in the source
[7] = biological target: Platelet-derived growth factor receptor alpha (Homo sapiens, UniProt P16234)
Description: Inhibition of PDGFRalpha (unknown origin)

[8] = biological target: Receptor-type tyrosine-protein kinase FLT3 (Homo sapiens, UniProt P36888, ITD)
Chain of Receptor-type tyrosine-protein kinase FLT3 (P36888 whole entry, looked up, change not shown): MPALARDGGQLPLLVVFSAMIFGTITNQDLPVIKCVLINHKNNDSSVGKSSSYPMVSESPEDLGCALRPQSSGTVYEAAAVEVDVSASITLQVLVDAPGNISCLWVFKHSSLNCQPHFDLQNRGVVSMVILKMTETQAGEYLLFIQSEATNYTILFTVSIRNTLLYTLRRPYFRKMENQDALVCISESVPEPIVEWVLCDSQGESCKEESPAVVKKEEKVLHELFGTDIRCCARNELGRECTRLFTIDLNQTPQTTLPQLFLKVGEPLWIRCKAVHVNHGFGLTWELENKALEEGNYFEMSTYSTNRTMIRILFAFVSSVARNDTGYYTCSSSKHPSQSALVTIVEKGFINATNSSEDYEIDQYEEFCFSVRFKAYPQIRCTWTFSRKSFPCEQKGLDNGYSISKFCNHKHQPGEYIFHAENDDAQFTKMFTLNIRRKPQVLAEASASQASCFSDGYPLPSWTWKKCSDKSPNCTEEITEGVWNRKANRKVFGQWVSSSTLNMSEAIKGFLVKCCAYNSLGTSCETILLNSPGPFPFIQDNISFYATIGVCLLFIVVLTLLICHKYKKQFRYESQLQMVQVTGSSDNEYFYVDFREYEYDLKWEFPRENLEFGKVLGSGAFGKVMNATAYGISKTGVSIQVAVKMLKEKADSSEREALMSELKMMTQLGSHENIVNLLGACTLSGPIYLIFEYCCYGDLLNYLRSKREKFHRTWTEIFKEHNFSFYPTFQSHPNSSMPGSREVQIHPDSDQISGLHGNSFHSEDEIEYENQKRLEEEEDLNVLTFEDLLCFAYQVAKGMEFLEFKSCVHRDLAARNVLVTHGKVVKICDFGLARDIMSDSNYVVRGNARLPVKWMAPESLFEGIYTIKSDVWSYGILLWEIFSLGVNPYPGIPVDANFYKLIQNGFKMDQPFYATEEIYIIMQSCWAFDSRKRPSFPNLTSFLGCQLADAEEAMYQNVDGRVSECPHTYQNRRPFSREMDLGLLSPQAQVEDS
Description: Inhibition of FLT3 ITD mutant (unknown origin)

Chain of Platelet-derived growth factor receptor alpha (P16234 whole entry): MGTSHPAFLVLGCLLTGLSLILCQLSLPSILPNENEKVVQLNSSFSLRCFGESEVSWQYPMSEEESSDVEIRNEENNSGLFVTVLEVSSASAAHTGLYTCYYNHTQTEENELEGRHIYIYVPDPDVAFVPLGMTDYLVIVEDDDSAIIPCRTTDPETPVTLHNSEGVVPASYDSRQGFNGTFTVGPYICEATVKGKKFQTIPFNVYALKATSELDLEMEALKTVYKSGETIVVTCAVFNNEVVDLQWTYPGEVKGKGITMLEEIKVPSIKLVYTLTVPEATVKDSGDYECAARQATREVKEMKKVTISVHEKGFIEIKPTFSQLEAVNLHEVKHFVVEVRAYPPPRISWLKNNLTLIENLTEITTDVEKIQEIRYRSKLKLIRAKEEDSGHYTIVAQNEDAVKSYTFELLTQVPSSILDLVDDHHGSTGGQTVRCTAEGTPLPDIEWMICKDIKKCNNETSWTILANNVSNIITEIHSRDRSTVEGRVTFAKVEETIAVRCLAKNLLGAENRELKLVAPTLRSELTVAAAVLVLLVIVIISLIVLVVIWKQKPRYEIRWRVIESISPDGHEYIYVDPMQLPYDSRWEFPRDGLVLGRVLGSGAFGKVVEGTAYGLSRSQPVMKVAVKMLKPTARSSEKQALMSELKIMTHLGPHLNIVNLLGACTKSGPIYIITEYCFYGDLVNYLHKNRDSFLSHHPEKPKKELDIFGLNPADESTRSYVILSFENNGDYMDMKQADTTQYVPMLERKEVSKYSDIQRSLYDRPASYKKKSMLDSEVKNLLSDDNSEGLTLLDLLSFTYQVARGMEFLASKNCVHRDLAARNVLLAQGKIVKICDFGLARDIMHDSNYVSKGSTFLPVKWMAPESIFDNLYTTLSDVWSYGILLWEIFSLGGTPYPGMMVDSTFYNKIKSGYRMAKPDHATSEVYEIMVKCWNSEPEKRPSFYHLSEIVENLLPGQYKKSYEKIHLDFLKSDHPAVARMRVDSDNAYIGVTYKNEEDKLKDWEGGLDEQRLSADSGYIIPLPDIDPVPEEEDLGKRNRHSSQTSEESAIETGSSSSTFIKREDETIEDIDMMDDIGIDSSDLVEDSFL
Chain of Receptor-type tyrosine-protein kinase FLT3 (Homo sapiens), P36888 [UNDEFINED MUTATION] (P36888 whole entry, looked up, change not shown): as the sequence (P36888 whole entry, looked up, change not shown) above

inhibition [1] | inhibition [2] | GI50 (K562) | IC50 [3] | GI50 (MV4-11 [5]) | inhibition [6] | IC50 [7] | IC50 [8] | SMILES | GI50 (Kasumi 1) | Activity (MV4-11 [4]) | GI50 (EOL1)
Active | Active | 2.79 µM | 21 nM | 52 nM | Active | 219 nM | 6 nM | NCCCNCCCCNc1ccc(Nc2nc(N[C@H]3CC[C@H](N)CC3)nc3c2ncn3C2CCCC2)cc1 | 1850 nM | Active | 60 nM
– | – | 8.26 µM | 27 nM | 577 nM | Active | > 20000 nM | 1650 nM | NCCCCNC(=O)c1ccc(CNc2nc(N[C@H]3CC[C@H](N)CC3)nc3c2ncn3C2CCCC2)cc1 | 2560 nM | – | 676 nM
Active | Active | 6.29 µM | 17 nM | 95 nM | Active | 153 nM | 4 nM | NCCCCNc1ccc(Nc2nc(N[C@H]3CC[C@H](N)CC3)nc3c2ncn3C2CCCC2)cc1 | 2740 nM | Active | 171 nM
Active | Active | 0.896 µM | 31 nM | 4 nM | Active | 203 nM | 10 nM | NCCCNCCCCNCCCNc1ccc(Nc2nc(N[C@H]3CC[C@H](N)CC3)nc3c2ncn3C2CCCC2)cc1 | 647 nM | – | 11 nM
Active | Active | 6.13 µM | 4 nM | 39 nM | Active | 17 nM | 2 nM | NC(=O)c1ccc(Nc2nc(N[C@H]3CC[C@H](N)CC3)nc3c2ncn3C2CCCC2)cc1 | 4180 nM | Active | 40 nM
Active | Active | 2.45 µM | 7 nM | 23 nM | Active | 196 nM | 5 nM | N[C@H]1CC[C@H](Nc2nc(Nc3ccccc3)c3ncn(C4CCCC4)c3n2)CC1 | 278 nM | Active | 41 nM
– | – | 7.19 µM | 25 nM | 602 nM | Active | 19800 nM | 1310 nM | NCCCNCCCCNC(=O)c1ccc(CNc2nc(N[C@H]3CC[C@H](N)CC3)nc3c2ncn3C2CCCC2)cc1 | 1920 nM | – | 799 nM
Active | Active | 7.37 µM | 19 nM | 25 nM | Active | 41 nM | 4 nM | NCCCNCCCCNC(=O)c1ccc(Nc2nc(N[C@H]3CC[C@H](N)CC3)nc3c2ncn3C2CCCC2)cc1 | 2910 nM | Active | 17 nM
– | – | 4.22 µM | – | 1140 nM | Active | > 20000 nM | 2510 nM | N[C@H]1CC[C@H](Nc2nc(NCc3ccccc3)c3ncn(C4CCCC4)c3n2)CC1 | 988 nM | – | 1170 nM
Active | Active | 10.8 µM | 20 nM | 23 nM | Active | 36 nM | 3 nM | NCCCCNC(=O)c1ccc(Nc2nc(N[C@H]3CC[C@H](N)CC3)nc3c2ncn3C2CCCC2)cc1 | 4050 nM | Active | 15 nM
